What was measured:
HMGB1 = HMGB1 ELISA in culture medium of senescent foreskin cells (Example 10, Table 62); assay type: cell-based, human
Protocol: After 6 hours, the amounts of HMGB1 and HMGN1 secreted into the cell culture medium were measured using an enzyme-linked immunosorbent assay (ELISA Kit, purchased from AssayGenie).

[1] = system: foreskin cells in which aging was induced by doxorubicin; test: cell viability of senescent foreskin cells with caspase inhibitor QVD-Oph (Example 10, Table 61); assay type: cell-based, human; conditions: ABT-263 1 μM; for Survial (%): doxorubicin-senescent foreskin cells, 3 days
HMGN1 [2] = test: HMGN1 ELISA in culture medium of foreskin cells (Examples 10, 11; Tables 62, 63, 64); assay type: cell-based, human; conditions: for activity at 30 µM: Homo sapiens, 30 μM test compound, doxorubicin-treated foreskin cells, DMSO = 100, read-out: HMGN1
HMGN1 [3] = test: HMGN1 ELISA in culture medium of A549 cancer cells (Example 12, Table 66); assay type: cell-based, human; conditions: Homo sapiens, A549, doxorubicin-induced senescent A549 cells, test compound 30 μM, ELISA, DMSO = 100; read-out: HMGN1 (amount of HMGN1 secreted in the cell culture)
[4] = system: foreskin cells in which senescence was not induced; test: CellTiter-Glo growth of foreskin cells in which senescence was not induced (Tables 5, 12); conditions: 30 μM, 3 days
Protocol: (§1) After 3 days, cell viability was measured using CellTiter-Glo Luminescent Cell Viability Assay (Promega) or light microscopy.

[5] = system: normally proliferating foreskin cells; test: survival of normally proliferating foreskin cells treated with medium supernatant (secreted fluid) of compound-killed cells (Example 13, Table 68); assay type: cell-based, human; conditions: after 3 days
Protocol: After treating cells with the test compound at a high concentration that induces the death of most cells in both non-senescence-induced and senescence-induced cells, the cells were washed three times with PBS to remove the test compound, and replaced with fresh medium and cultured for an additional 3 hours at the time when the compound has entered into the cell but has not yet induced cell death (approximately 1 to 3 hours after compound treatment). During this additional culture, by checking with an optical microscope, etc., the medium supernatants containing secreted fluid from normally proliferating and senescent cells in which cell death was induced were obtained. The obtained medium supernatant was replaced with the medium of normally proliferating and senescent cells, respectively, and cell survival rate was measured after 3 days.

A549 = test: CellTiter-Glo cell viability of senescent A549 cancer cells (Example 12, Table 67); assay type: cell-based, human; conditions: Homo sapiens, A549, doxorubicin-induced senescent A549 cancer cells, CellTiter-Glo, read-out: Survival (%); for viability at 1.1 µM: 1.1 μM test compound
[6] = system: foreskin cells in which senescence was induced by doxorubicin; test: CellTiter-Glo cell viability of doxorubicin-induced senescent foreskin cells (Examples 1-2, 10, 11, 13; Tables 4, 63, 65); assay type: cell-based, human; conditions: for cell death, senescent cells: 30 μM, 3 days; for viability at 1.1 µM: 1.1 μM test compound; for viability at 10 µM: 10 μM test compound; for viability at […]: […] test compound
Protocol: as §1

senescent foreskin cells = test: survival of senescent foreskin cells treated with medium supernatant (secreted fluid) of compound-killed cells (Example 13, Tables 68, 69); assay type: cell-based, human; conditions: supernatant-treated cells: senescent cells, after 3 days
[7] = read-out: MST Kd; cited from earlier work
[8] = 1 μM, culture medium after 6 hours, senescent foreskin cells
[9] = ABT-263 1 μM or LX-112 10 μM, 6 hours
[10] = supernatant from compound-treated medium without cells (No Cells)
[11] = supernatant from death-induced proliferating foreskin cells (compound 30 μM)
[12] = supernatant from death-induced senescent foreskin cells (compound 30 μM)
[13] = Homo sapiens, 72 h, doxorubicin-induced senescent foreskin cells, CellTiter-Glo, 0 μM = 100, read-out: Survival (%)

CC1(C)CCC(c2ccc(Cl)cc2)=C(CN2CCN(c3ccc(C(=O)NS(=O)(=O)c4ccc(N[C@H](CCN5CCOCC5)CSc5ccccc5)c(S(=O)(=O)C(F)(F)F)c4)cc3)CC2)C1 [ABT-263, reference compound]
HMGB1 (pg/ml) (HMGB1; [8]): 462.7 (±21.6) pg/ml | HMGB1 secreted in the culture medium from dying senescent cells (HMGB1; [9]): little change | Survial (%) ([1]; QVD-Oph 20 μM applied 4 hours before): 98.4 (±2.6) % | Survial (%) ([1]; without QVD-Oph): 23.8 (±5.5) % | inhibition of the death of senescent cells by the caspase inhibitor ([1]; QVD-Oph 20 μM, LX-112 10 μM): completely inhibited | HMGN1 (pg/ml) (HMGN1 [2]; [8]): 105.3 (±13.5) pg/ml | HMGN1 secreted in the culture medium from dying senescent cells (HMGN1 [2]; [9]): no significant change

Cc1onc(C(=O)N2CCN(C(c3ccc(Cl)cc3)c3ccc(Cl)cc3)CC2)c1N(O)O [LX-401]
activity at 30 µM (HMGN1 [3]): 277% | cell death, normally proliferating cells [4]: induced the death of most cells | Survival (%) [5, 10]: 97.9 (±7.2) % | Survival (%) [5, 11]: 88.1 (±4.2) % | Survival (%) [5, 12]: 95.1 (±5.7) % | viability at 1.1 µM (A549): 89.7% | viability at 10 µM (A549; 10 μM test compound): 42.1% | viability at 30 µM (A549; 30 μM test compound): 16.8% | activity at 30 µM (HMGN1 [2]): 263% | cell death, senescent cells [6]: induced the death of most cells | viability at 1.1 µM [6, 13]: 20.4% | viability at 10 µM [6, 13]: 10.6% | viability at 30 µM ([6]; Homo sapiens, 72 h, 30 μM test compound, doxorubicin-induced senescent foreskin cells, CellTiter-Glo, 0 μM = 100, read-out: Survival (%)): 7.8% | viability at […] [6, 13]: 12.4% | Survival (%) (senescent foreskin cells; [10]): 101.1 (±5.5) % | Survival (%) (senescent foreskin cells; [11]): 48.2 (±4.2) % | Survival (%) (senescent foreskin cells; [12]): 42.2 (±4)^ %

COc1ccc(N(C(=O)CCl)C(C(=O)NCCc2ccccc2)c2cccs2)cc1Cl (stereo not shown) [LX-402]
activity at 30 µM (HMGN1 [3]): 340% | cell death, normally proliferating cells [4]: induced the death of most cells | Survival (%) [5, 10]: 97.1 (±5.9) % | Survival (%) [5, 11]: 78.1 (±3.8) % | Survival (%) [5, 12]: 101.1 (±2.2) % | viability at 1.1 µM (A549): 71.6% | activity at 30 µM (HMGN1 [2]): 298% | cell death, senescent cells [6]: induced the death of most cells | viability at 1.1 µM [6, 13]: 67.2% | viability at 10 µM [6, 13]: 4.5% | viability at […] [6, 13]: 27% | Survival (%) (senescent foreskin cells; [10]): 98 (±3.6) % | Survival (%) (senescent foreskin cells; [11]): 31 (±1.2) % | Survival (%) (senescent foreskin cells; [12]): 48.3 (±2.1) %

CC(C)(C)OC(=O)CCCN1C(=O)c2ccccc2C1=O [LX-407]
activity at 30 µM (HMGN1 [3]): 339% | Kd [7]: 399 nM | viability at 1.1 µM (A549): 29.4% | activity at 30 µM (HMGN1 [2]): 299% | viability at 1.1 µM [6, 13]: 15.9%

CC(C)(C)OC(=O)CCN1C(=O)c2ccccc2C1=O [QW-011]
Kd [7]: 926 nM

CC(C)(C)OC(=O)C(C)(C)N1C(=O)c2ccccc2C1=O [QW-020]
Kd [7]: 2140 nM

CC(C(=O)OC(C)(C)C)N1C(=O)c2ccccc2C1=O (stereo not shown) [QW-023]
Kd [7]: 1780 nM

CC(C)(C)OC(=O)CCCCCN1C(=O)c2ccccc2C1=O [QW-029]
Kd [7]: 2100 nM

CC(C)(C)OC(=O)C(N1C(=O)c2ccccc2C1=O)C(C)(C)C (stereo not shown) [QW-034]
Kd [7]: 979 nM

CCC(C)C(C(=O)OC(C)(C)C)N1C(=O)c2ccccc2C1=O (stereo not shown) [QW-050]
Kd [7]: 2430 nM
